Source: patent publication US20140350081A1, “INSECT G-COUPLED RECEPTORS USEFUL AS TARGETS FOR INSECTICIDES AND COMPOUNDS AND REAGENTS IDENTIFIED USING THE SAME” (priority 2011, published 2014)
Counter-ions that a name gives are not always drawn. Like-named read-outs stand apart in the source and are kept apart here.

How the values were obtained:
[1] = molecular target: T1, AaDOP2 (Aedes aegypti, UniProt H6D5H2); test: LOPAC1280 antagonist screen in HEK-CRELuc-Aadop2 cells; type: cell-based; conditions: for % inhibition of DA activity (Aedes cell-based assay screen): LOPAC1280 screen hits
[2] = molecular target: Isdop2 (Ixodes scapularis, UniProt A0ACM8DGL0); test: cell-based; conditions: for inhibition at 10 µM: read-out: % Inhibition (of response to dopamine), Isdop2 screen
[3] = molecular target: T1, AaDOP2; test: HTRF cAMP accumulation concentration response assay (Cisbio Dynamic 2); type: cell-based
[4] = tested on: Ae. aegypti L3 larvae; test: whole plant or invertebrate; conditions: Aedes aegypti
[5] = 10 μM compound, 300 nM dopamine, quadruplicate
[6] = 10 μM compound, footnote 3 mM dopamine
[7] = Avg IC50 (μM), in vitro Concentration Response Curve assay, n = 2, relative to control antagonist Amitriptyline
[8] = AaDOP2 expressing cells in the presence of dopamine, No Inhibition = <10% inhibition at 3 μM test compound, read-out: IC50 ± S.E.M. (nM), HTRF cAMP assay
[9] = AaDOP2 expressing cells in the presence of dopamine, No Inhibition = <10% inhibition at 3 μM test compound
[10] = 24 h, read-out: Toxicity to Aedes aegypti larvae (mortality) 24 hours, 400 μM, L3 larvae, three independent experiments
[11] = 48 h, read-out: Toxicity to Aedes aegypti larvae (mortality) 48 hours, 400 μM, L3 larvae, three independent experiments
[12] = 72 h, read-out: Toxicity to Aedes aegypti larvae (mortality) 72 hours, 400 μM, L3 larvae, three independent experiments
[13] = in vitro Concentration Response Curve assay, n = 2, relative to control antagonist Amitriptyline, read-out: Avg IC50

Chain of Isdop2 (A0ACM8DGL0 entry or part of it): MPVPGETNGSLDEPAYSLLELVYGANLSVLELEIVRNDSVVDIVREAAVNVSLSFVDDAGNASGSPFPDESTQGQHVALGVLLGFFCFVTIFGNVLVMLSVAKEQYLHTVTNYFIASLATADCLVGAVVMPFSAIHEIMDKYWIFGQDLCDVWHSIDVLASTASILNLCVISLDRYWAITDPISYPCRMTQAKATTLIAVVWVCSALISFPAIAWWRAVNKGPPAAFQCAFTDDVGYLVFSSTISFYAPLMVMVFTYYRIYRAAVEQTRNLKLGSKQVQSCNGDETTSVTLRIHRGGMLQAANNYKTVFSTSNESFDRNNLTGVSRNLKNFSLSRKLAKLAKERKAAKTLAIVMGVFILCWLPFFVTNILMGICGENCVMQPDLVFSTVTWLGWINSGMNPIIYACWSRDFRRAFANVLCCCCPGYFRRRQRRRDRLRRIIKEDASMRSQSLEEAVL
T1 sequence (H6D5H2 entry or part of it): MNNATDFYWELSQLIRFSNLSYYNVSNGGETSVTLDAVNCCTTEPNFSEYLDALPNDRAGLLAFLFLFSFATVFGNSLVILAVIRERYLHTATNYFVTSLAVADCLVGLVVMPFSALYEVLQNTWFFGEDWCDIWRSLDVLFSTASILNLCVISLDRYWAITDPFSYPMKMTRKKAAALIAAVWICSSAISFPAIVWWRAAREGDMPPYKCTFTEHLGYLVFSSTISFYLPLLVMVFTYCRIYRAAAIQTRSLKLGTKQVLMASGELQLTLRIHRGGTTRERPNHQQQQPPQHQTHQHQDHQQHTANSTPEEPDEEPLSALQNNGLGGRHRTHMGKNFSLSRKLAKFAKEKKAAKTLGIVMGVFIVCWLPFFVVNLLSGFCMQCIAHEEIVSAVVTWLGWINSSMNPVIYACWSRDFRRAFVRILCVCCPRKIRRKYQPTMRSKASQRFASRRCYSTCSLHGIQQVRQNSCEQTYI

In the case of `CC(=O)[C@]1(O)Cc2c(O)c3c(c(O)c2[C@@H](O[C@H]2C[C@H](N)[C@H](O)[C@H](C)O2)C1)C(=O)c1ccccc1C3=O` [Idarubicin], the “% of the SCH23390 effect” value [1] is reported as 83% and the inhibition at 10 µM [2] is reported as 97%.

For `O=C1C(SCCO)=C(SCCO)C(=O)c2ccccc21` [NSC 95397], the “% of the SCH23390 effect” value [1, 5] was 83% and the “% Inhibition (of response to dopamine), Isdop2 screen” value (shortened to “% Inhibition … Isdop2 screen”) [2] was 93%.

`O=C1Cc2c([nH]c3ccc(Br)cc23)-c2ccccc2N1` [Kenpaullone] was tested, and the “% of the SCH23390 effect” value [1, 5] was 83% and the inhibition at 10 µM [2] was 68%.

With `Cc1nc2ccccn2c(=O)c1CCN1CCC(C(=O)c2ccc(F)cc2)CC1` [Pirenperone, 3-[2-[4-(p-fluorobenzoyl)piperidino]ethyl]-2-methyl-4h-pyrido[1,2-a]pyrimidin-4-one] the “% of the SCH23390 effect” value [1, 5] was 90%, the “% inhibition of DA activity (Aedes cell-based assay screen)” value (from here on “% inhibition of DA activity”) [1] was 90% and the inhibition at 10 µM [2] was 87%.

For `Cc1nc2sccn2c(=O)c1CCN1CCC(=C(c2ccccc2)c2ccc(F)cc2)CC1` [Diacylglycerol kinase inhibitor I], the “% of the SCH23390 effect” value [1, 5] was 90% and the “% Inhibition … Isdop2 screen” value [2] was 69%.

With `CC1(C)CCC2=C(O1)c1ccccc1C(=O)C2=O` [beta-Lapachone] the “% of the SCH23390 effect” value [1, 5] was 86%.

For `CN1C2CCC1CC(OC(c1ccccc1)c1ccc(Cl)cc1)C2.Cl` (stereo not drawn) [4′-Chloro-3-alpha-(diphenylmethoxy) tropane hydrochloride], the “% of the SCH23390 effect” value [1, 5] was 85% and the “% Inhibition … Isdop2 screen” value [2, 6] was 80%.

In the case of `OCCN1CCN(CCCN2c3ccccc3Sc3ccc(Cl)cc32)CC1` [Perphenazine, 2-[4-[3-(2-chloro-10H-phenothiazin-10-yl)propyl]piperazin-1-yl]ethanol], the “% of the SCH23390 effect” value [1, 5] is reported as 95%, the “% inhibition of DA activity” value [1] is reported as 95% and the IC50 [3, 7] is reported as 0.101 µM. For the same compound, the inhibition at 10 µM [2] was 76%.

In the case of `CC(CN(C)C)CN1c2ccccc2CCc2ccccc21` (racemic) [Trimipramine, (±)-3-(10,11-dihydro-5H-dibenzo[b,f]azepin-5-yl)-N,N,2-trimethylpropan-1-], the “% of the SCH23390 effect” value [1, 5] is reported as 87%, the “% inhibition of DA activity” value [1] is reported as 87% and the inhibition at 10 µM [2] is reported as 86%.

In the case of `CN(C)CCCN1c2ccccc2Sc2ccc(C(F)(F)F)cc21` [Triflupromazine, N,N-dimethyl-3-[2-(trifluoromethyl)-10H-phenothiazin-10-yl]propan-1-amine], the “% of the SCH23390 effect” value [1] is reported as 88%, the “% inhibition of DA activity” value [1] is reported as 88% and the inhibition at 10 µM [2] is reported as 83%.

For `CN1CCC(=C2c3ccccc3CC(=O)c3sccc32)CC1` [Ketotifen, 4-(1-methylpiperidin-4-ylidene)-4,9-dihydro-10H-benzo[4,5]cyclohepta[1,2-b]thiophen-10-one], the “% of the SCH23390 effect” value [1, 5] was 96%, the “% inhibition of DA activity” value [1] was 96% and the IC50 [3, 8] was 0.75 ± 0.18 µM.

In the case of `CCCCCCCCCCCCCC(=O)O[C@@H]1[C@@H](C)[C@@]2(O)[C@@H](C=C(CO)C[C@]3(O)C(=O)C(C)=C[C@@H]23)[C@@H]2C(C)(C)[C@]12OC(C)=O` [Phorbol 12-myristate 13-acetate], the “% of the SCH23390 effect” value [1] is reported as 88% and the “% Inhibition … Isdop2 screen” value [2] is reported as 75%.

In the case of `CC(C)[C@H](CO)Nc1nc(Nc2cccc(Cl)c2)c2ncn(C(C)C)c2n1` [Purvalanol A], the “% of the SCH23390 effect” value [1, 5] is reported as 93% and the “% Inhibition … Isdop2 screen” value [2] is reported as 84%.

For `COc1ccc(C(CN(C)C)C2(O)CCCCC2)cc1` (stereo not drawn) [Venlafaxine], the “IC50 ± S.E.M. (nM), HTRF cAMP assay” value [3, 9] was “No Inhibition^a”, the mortality at 400 µM [4, 10] was 3% and the mortality at 400 µM [4, 11] was 7%. For the same compound, the mortality at 400 µM [4, 12] was 13%.

For `CC[C@H]1CN2CCc3cc(OC)c(OC)cc3[C@@H]2C[C@@H]1C[C@H]1NCCc2cc(OC)c(OC)cc21` [Emetine dihydrochloride hydrate], the “% of the SCH23390 effect” value [1] was 86% and the inhibition at 10 µM [2] was 100%.

For `O=C(Nc1ccc([N+](=O)[O-])cc1Cl)c1cc(Cl)ccc1O` [Niclosamide], the “% of the SCH23390 effect” value [1, 5] was 95% and the inhibition at 10 µM [2] was 100%.

Compound `CNCCCN1c2ccccc2CCc2ccccc21` [Desipramine] has an IC50 [3, 8] of 3.3 µM, a mortality at 400 µM [4, 10] of 30% and a mortality at 400 µM [4, 11] of 40%. For the same compound, the mortality at 400 µM [4, 12] was 43%.

For `CN1CCc2ccccc2Cc2[nH]c3ccccc3c2CC1` [LE 300, 7-Methyl-6,7,8,9,14,15-hexahydro-5H-benz[d]indolo[2,3-g]azecine], the “% of the SCH23390 effect” value [1] was 99%, the “% inhibition of DA activity” value [1] was 99% and the inhibition at 10 µM [2] was 100%.

With `CN1CCN(CC/C=C2/c3ccccc3Sc3ccc(S(=O)(=O)N(C)C)cc32)CC1` [Thiothixene, (9Z)-N,N-dimethyl-9-[3-(4-methylpiperazin-1-yl)propylidene]-9H-thioxanthene-2-sulfonamide] the “% of the SCH23390 effect” value [1] was 86%, the “% inhibition of DA activity” value [1] was 86% and the inhibition at 10 µM [2] was 87%.

With `Oc1cc(O)cc(/C=C/c2ccc(O)c(O)c2)c1` [Piceatannol] the “% of the SCH23390 effect” value [1, 5] was 98% and the inhibition at 10 µM [2] was 100%.

In the case of `CNCC[C@@H](Oc1ccccc1C)c1ccccc1` [Atomoxetine], the “IC50 ± S.E.M. (nM), HTRF cAMP assay” value [3, 9] is reported as “No Inhibition^a”, the mortality at 400 µM [4, 10] is reported as 20% and the mortality at 400 µM [4, 11] is reported as 30%. For the same compound, the mortality at 400 µM [4, 12] was 30%.

For `Cc1nc2sccn2c(=O)c1CCN1CCC(=C(c2ccc(F)cc2)c2ccc(F)cc2)CC1` [Ritanserin, 6-[2-[4-[bis(4-fluorophenyl)methylidene]piperidin-1-yl]ethyl]-7-methyl-[1,3]thiazolo[2,3-b]pyrimidin-5-one], the “% of the SCH23390 effect” value [1, 5] was 83%, the “% inhibition of DA activity” value [1] was 83% and the inhibition at 10 µM [2] was 77%.

In the case of `O=C1c2c(O)ccc(O)c2C(=O)c2c(NCCNCCO)ccc(NCCNCCO)c21` [Mitoxantrone], the “% of the SCH23390 effect” value [1, 5] is reported as 83%.

In the case of `CC1(C)C(=O)N(CCN2CCC(C(=O)c3ccc(F)cc3)CC2)c2ccccc21.Cl` [LY310762, 1-[2-[4-(4-fluorobenzoyl)piperidin-1-yl]ethyl]-3,3-dimethylindol-2-one], the “% of the SCH23390 effect” value [1] is reported as 81%, the “% inhibition of DA activity” value [1] is reported as 81% and the mortality at 400 µM ([4]; 0.5 h, read-out: percent mortality 0.5 hr, 400 uM, L3 larvae, value for this scoring time) is reported as 0%. It also gave a mortality at 400 µM ([4]; 1 h, read-out: percent mortality 1 hr, 400 uM, L3 larvae, per scoring time) of 0%, a mortality at 400 µM ([4]; 2 h, read-out: percent mortality 2 hr, 400 uM, L3 larvae, per scoring time) of 0% and a mortality at 400 µM ([4]; 3 h, read-out: percent mortality 3 hr, 400 uM, L3 larvae, per scoring time) of 0%. It also gave a mortality at 400 µM ([4]; 4 h, read-out: percent mortality 4 hr, 400 uM, L3 larvae, per scoring time) of 0%, a mortality at 400 µM [4, 10] of 0% and a mortality at 400 µM ([4]; 24 h, read-out: percent mortality 24 hr, 400 uM, L3 larvae, per scoring time) of 0%. For the same compound, the mortality at 400 µM [4, 11] was 3%, the mortality at 400 µM ([4]; 48 h, read-out: percent mortality 48 hr, 400 uM, L3 larvae, per scoring time) was 10% and the mortality at 400 µM ([4]; 72 h, read-out: Cumulative % Mortality (72 hrs), 400 uM, L3 larvae) was 10%. The mortality at 400 µM [4, 12] was 3%, the mortality at 400 µM ([4]; 72 h, read-out: percent mortality 72 hr, 400 uM, L3 larvae, per scoring time) was 0% and the mortality at 400 µM ([4]; […], read-out: percent mortality […], 400 uM, L3 larvae, per scoring time) was 0%. For the same compound, the inhibition at 10 µM [2] was 72%.

`COCCCC/C(=N\OCCN)c1ccc(C(F)(F)F)cc1` [Fluvoxamine] was tested, and the “IC50 ± S.E.M. (nM), HTRF cAMP assay” value [3, 9] was “No Inhibition^a”, the mortality at 400 µM [4, 10] was 27% and the mortality at 400 µM [4, 11] was 33%. It also gave a mortality at 400 µM [4, 12] of 43%.

Work on `COc1ccccc1OCCNCC(O)COc1cccc2[nH]c3ccccc3c12` (stereo not drawn) [Carvedilol, 1-(9H-Carbazol-4-yloxy)-3-[[2-(2-methoxyphenoxy)ethyl]amino]-2-propanol] yielded an IC50 [3, 7] of 8.5 µM.

Work on `CN1CCN(c2nc(Nc3cccc(F)c3)c3cnn(-c4ccccc4)c3n2)CC1` [Compound G932-0671, N-(3-fluorophenyl)-6-(4-methylpiperazin-1-yl)-1-phenyl-1H-pyrazolo[3,4-d]pyrimidin-4-amine] yielded an IC50 [3, 13] of 0.585 µM.

In the case of `CN(C)CCCN1c2ccccc2Sc2ccccc21` [Promazine, N,N-dimethyl-3-(10H-phenothiazin-10-yl)-propan-1-amine], the “% of the SCH23390 effect” value [1] is reported as 88%, the “% inhibition of DA activity” value [1] is reported as 88% and the inhibition at 10 µM [2] is reported as 87%.

In the case of `O=C1CC2(CCCC2)CC(=O)N1CCCCN1CCN(c2ncccn2)CC1` [Buspirone], the “IC50 ± S.E.M. (nM), HTRF cAMP assay” value [3, 9] is reported as “No Inhibition^a”.

`Cc1ccc(/N=C/N(C)/C=N/c2ccc(C)cc2C)c(C)c1` [Amitraz] was tested, and the “IC50 ± S.E.M. (nM), HTRF cAMP assay” value [3, 9] was “No Inhibition^a”.

With `CC[C@@]1(O)C(=O)OCc2c1cc1n(c2=O)Cc2cc3ccccc3nc2-1` [(S)-(+)-Camptothecin] the “% of the SCH23390 effect” value [1, 5] was 93% and the “% Inhibition … Isdop2 screen” value [2, 6] was 97%.

`CCCCC(=O)Nc1ccc(Nc2nc(C)cc(Nc3ccccc3)n2)cc1` [Compound G869-0099, N-(4-((4-methyl-6-(phenylamino)pyrimidin-2-yl)amino)phenyl)pentanamide] showed an IC50 [3, 13] of 5.95 µM.

With `OCCN1CCN(c2nc(Nc3cccc(F)c3)c3cnn(-c4ccccc4)c3n2)CC1` [Compound G932-0674, 2-(4-(4-((3-fluorophenyl)amino)-1-phenyl-1H-pyrazolo[3,4-d]pyrimidin-6-yl)piperazin-1-yl)ethanol] the IC50 [3, 13] was 1.48 µM.

In the case of `CCC(=O)c1ccc2c(c1)N(CCCN(C)C)c1ccccc1S2` [Propionylpromazine, 1-[10-[3-(dimethylamino)propyl]phenothiazin-2-yl]propan-1-one], the “% of the SCH23390 effect” value [1, 5] is reported as 85%, the “% inhibition of DA activity” value [1] is reported as 85% and the inhibition at 10 µM [2] is reported as 94%.
